For 19 molecules, IC50 results are on record in patent US12258354B2, “AhR modulators” (IDEAYA BIOSCIENCES, INC., priority 2018, dated 2025).

The experiment concerns the target T1, hAhR (Homo sapiens, UniProt P35869).
T1 construct: Stably integrated DRE-luciferase cell lines were generated by transducing the both cell lines with Cignal XRE luciferase reporter; endogenous in cells; host or cells: HEPG2 DRE-Luc cells (only the XRE luciferase reporter was transduced)
T1 sequence (P35869 11-848): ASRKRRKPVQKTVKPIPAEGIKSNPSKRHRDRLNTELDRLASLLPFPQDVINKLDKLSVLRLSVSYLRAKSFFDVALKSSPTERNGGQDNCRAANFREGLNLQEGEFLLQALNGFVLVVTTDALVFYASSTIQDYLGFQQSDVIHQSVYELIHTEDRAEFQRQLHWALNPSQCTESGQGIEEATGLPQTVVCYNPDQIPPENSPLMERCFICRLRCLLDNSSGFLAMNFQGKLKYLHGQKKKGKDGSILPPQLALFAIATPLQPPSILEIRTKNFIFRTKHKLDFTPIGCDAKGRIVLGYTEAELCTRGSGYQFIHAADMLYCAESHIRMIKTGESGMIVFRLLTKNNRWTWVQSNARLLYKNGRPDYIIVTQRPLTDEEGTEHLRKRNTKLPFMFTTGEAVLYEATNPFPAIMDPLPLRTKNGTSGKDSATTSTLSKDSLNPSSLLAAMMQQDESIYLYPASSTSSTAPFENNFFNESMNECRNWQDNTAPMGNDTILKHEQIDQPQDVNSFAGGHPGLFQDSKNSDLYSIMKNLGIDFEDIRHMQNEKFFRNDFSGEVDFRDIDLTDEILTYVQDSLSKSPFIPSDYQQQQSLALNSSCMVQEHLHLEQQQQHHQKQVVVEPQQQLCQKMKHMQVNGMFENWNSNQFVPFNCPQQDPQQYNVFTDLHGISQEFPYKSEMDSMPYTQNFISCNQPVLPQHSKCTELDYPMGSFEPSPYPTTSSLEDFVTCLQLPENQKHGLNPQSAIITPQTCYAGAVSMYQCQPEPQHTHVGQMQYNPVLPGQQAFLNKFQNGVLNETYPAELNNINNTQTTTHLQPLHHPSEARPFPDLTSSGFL
Put plainly: DRE-luciferase transcriptional reporter assay in HEPG2 DRE-Luc cells, TCDD-induced (antagonist mode). The note with it: relative IC50, 3 nM TCDD, 24-hour incubation, firefly luciferase readout. The class given is cell-based. The method, boiled down:
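Stable DRE(XRE)-luciferase HEPG2 clone seeded in OptiMEM with 0.5% heat-inactivated FBS, then given a semi-log compound dilution plus TCDD at 3 nM final. After 24 h, cells were lysed and firefly luminescence read. Response was normalised between TCDD and vehicle, and relative IC50 was taken as half-reduction between the fitted curve plateaus.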

As to `Cc1cc(-c2ncc3cc(C(F)(F)F)ccc3n2)ccc1N1CCOc2cnn(CCN3CCC(O)CC3)c2C1=O` [compound 072, 1-(2-(4-hydroxypiperidin-1-yl)ethyl)-7-(2-methyl-4-(6-(trifluoromethyl)-quinazolin-2-yl)phenyl)-6,7-dihydro-1H-pyrazolo[3,4-f][1,4]oxazepin-8 (5H)-one], the IC50 lay within 1 to 10 µM.

In turn, `Cc1cc(-c2ncc3cc(C(F)(F)F)ccc3n2)ccc1N1CCOc2cnn(CCN3CCC(F)(F)CC3)c2C1=O` [compound 073, 1-(2-(4,4-difluoropiperidin-1-yl)ethyl)-7-(2-methyl-4-(6-(trifluoromethyl)-quinazolin-2-yl)phenyl)-6,7-dihydro-1H-pyrazolo[3,4-f][1,4]oxazepin-8 (5H)-one] showed a 50% inhibitory concentration (IC50) of 1 to 10 µM.

In turn, `Cc1cc(-c2ncc3cc(C(F)(F)F)ccc3n2)ccc1N1CCOc2cnn(Cc3nnn[nH]3)c2C1=O` [compound 075, 7-[2-methyl-4-[6-(trifluoromethyl)quinazolin-2-yl]phenyl]-1-[(1H-1,2,3,4-tetrazol-5-yl)methyl]-1H,5H,6H,7H,8H-pyrazolo[3,4-f][1,4]oxazepin-8-one] registered an IC50 of 1 to 10 µM.

For `Cc1cc(-c2ncc3cc(C(F)(F)F)ccc3n2)ccc1N1CCOc2cnn(CC(=O)O)c2C1=O` [compound 076, 2-(7-(2-methyl-4-(6-(trifluoromethyl)quinazolin-2-yl)phenyl)-8-oxo-5,6,7,8-tetrahydro-1H-pyrazolo[3,4-f][1,4]oxazepin-1-yl)acetic acid], the IC50 was in the range of 1 to 10 µM.

With `Cc1cc(-c2ncc3cc(C(F)(F)F)ccc3n2)ccc1N1CCOc2cn(Cc3nnn[nH]3)nc2C1=O` [compound 077, 2-((1H-tetrazol-5-yl)methyl)-7-(2-methyl-4-(6-(trifluoromethyl)-quinazolin-2-yl)phenyl)-6,7-dihydro-2H-pyrazolo[3,4-f][1,4]oxazepin-8 (5H)-one], the IC50 was 1 to 10 µM.

As to `Cc1cc(-c2ncc3cc(C(F)(F)F)ccc3n2)ccc1N1CCOc2cn(CC(=O)O)nc2C1=O` [compound 078, 2-(7-(2-methyl-4-(6-(trifluoromethyl)quinazolin-2-yl)phenyl)-8-oxo-5,6,7,8-tetrahydro-2H-pyrazolo[3,4-f][1,4]oxazepin-2-yl)acetic acid], the IC50 was 1 to 10 µM.

`Cc1cc(-c2ncc3cc(C(F)(F)F)ccc3n2)ccc1N1CCn2ncc(CO)c2C1=O` [compound 079, 3-(hydroxymethyl)-5-(2-methyl-4-(6-(trifluoromethyl)quinazolin-2-yl)phenyl)-6,7-dihydropyrazolo[1,5-a]pyrazin-4 (5H)-one] showed an IC50 of less than 0.2 µM.

In turn, `Cc1cc(-c2ncc3cc(C(F)(F)F)ccc3n2)ccc1N1CCn2nc(C(=O)N[C@H](C)CO)c(C)c2C1=O` [compound 080, (R)-N-(1-hydroxypropan-2-yl)-3-methyl-5-(2-methyl-4-(6-(trifluoromethyl)-quinazolin-2-yl)phenyl)-4-oxo-4,5,6,7-tetrahydropyrazolo[1,5-a]pyrazine-2-carboxamide] yielded an IC50 of less than 0.2 µM.

For the molecule `Cc1cc(-c2ncc3cc(C(F)(F)F)ccc3n2)ccc1N1CCn2ncc(N[C@@H](C)CO)c2C1=O` [compound 081, (S)-3-((1-hydroxypropan-2-yl)amino)-5-(2-methyl-4-(6-(trifluoromethyl)-quinazolin-2-yl)phenyl)-6,7-dihydropyrazolo[1,5-a]pyrazin-4 (5H)-one], the half-maximal inhibitory concentration (IC50) is less than 0.2 µM.

For `Cc1cc(-c2ncc3nc(C(F)(F)F)ccc3n2)ccc1N1CCOc2c(CO)nn(C)c2C1=O` [compound 082, 3-(hydroxymethyl)-1-methyl-7-(2-methyl-4-(6-(trifluoromethyl)-pyrido-[3,2-d]pyrimidin-2-yl)phenyl)-6,7-dihydro-1H-pyrazolo[3,4-f][1,4]oxazepin-8 (5H)-one], the half-maximal inhibitory concentration (IC50) is less than 0.2 µM.

The molecule `Cc1cc(-c2ncc3nc(C(F)(F)F)ccc3n2)ccc1N1CCOc2c(C(C)O)nn(C)c2C1=O` (stereo not shown) [compound 083, 3-(1-hydroxyethyl)-1-methyl-7-(2-methyl-4-(6-(trifluoromethyl)-pyrido[3,2-d]pyrimidin-2-yl)phenyl)-6,7-dihydro-1H-pyrazolo[3,4-f][1,4]oxazepin-8 (5H)-one] gave a concentration for half-maximal inhibition (IC50) of less than 0.2 µM.

Regarding `Cc1cc(-c2ncc3nc(C(F)(F)F)ccc3n2)ccc1N1CCOc2c(C(C)(C)O)nn(C)c2C1=O` [compound 084, 3-(2-hydroxypropan-2-yl)-1-methyl-7-(2-methyl-4-(6-(trifluoromethyl)pyrido[3,2-d]pyrimidin-2-yl)phenyl)-6,7-dihydro-1H-pyrazolo[3,4-f][1,4]oxazepin-8 (5H)-one], the IC50 is less than 0.2 µM.

Consider `Cc1cc(-c2ncc3nc(C(F)(F)F)ccc3n2)ccc1N1CCOc2c(CN(C)C)nn(C)c2C1=O` [compound 085, 3-((dimethylamino)methyl)-1-methyl-7-(2-methyl-4-(6-(trifluoromethyl)pyrido-[3,2-d]pyrimidin-2-yl)phenyl)-6,7-dihydro-1H-pyrazolo[3,4-f][1,4]oxazepin-8 (5H)-one], for which the IC50 was less than 0.2 µM.

In turn, `CCOC(=O)c1nn(C)c2c1OCCN(c1ccc(-c3ncc4nc(C(F)(F)F)ccc4n3)cc1C)C2=O` [compound 086, ethyl 1-methyl-7-(2-methyl-4-(6-(trifluoromethyl)pyrido[3,2-d]pyrimidin-2-yl)phenyl)-8-oxo-5,6,7,8-tetrahydro-1H-pyrazolo[3,4-f][1,4]oxazepine-3-carboxylate] registered an IC50 of less than 0.2 µM.

Molecule `Cc1cc(-c2ncc3nc(C(F)(F)F)ccc3n2)ccc1N1CCn2nc(CO)c(C)c2C1=O` [compound 088, 2-(hydroxymethyl)-3-methyl-5-(2-methyl-4-(6-(trifluoromethyl)-pyrido-[3,2-d]pyrimidin-2-yl)phenyl)-6,7-dihydropyrazolo[1,5-a]pyrazin-4 (5H)-one] returned an IC50 of less than 0.2 µM.

In the case of `Cc1cc(-c2ncc3cc(C(F)(F)F)ccc3n2)ccc1N1CCn2nc(OCCO)c(C)c2C1=O` [compound 089, 2-(2-hydroxyethoxy)-3-methyl-5-(2-methyl-4-(6-(trifluoromethyl)quinazolin-2-yl)phenyl)-6,7-dihydropyrazolo[1,5-a]pyrazin-4 (5H)-one], the half-maximal inhibitory concentration (IC50) is less than 0.2 µM.

On to `Cc1cc(-c2ncc3cc(C(F)(F)F)ccc3n2)ccc1N1CC(COCc2ccccc2)n2ncc(C)c2C1=O` (stereo not shown) [compound 090, 7-((benzyloxy)methyl)-3-methyl-5-(2-methyl-4-(6-(trifluoromethyl)-quinazolin-2-yl)phenyl)-6,7-dihydropyrazolo[1,5-a]pyrazin-4 (5H)-one], for which the 50% inhibitory concentration (IC50) was less than 0.2 µM.

In turn, `Cc1cc(-c2ncc3cc(C(F)(F)F)ccc3n2)ccc1N1CCn2nc(CN3CCOC(C)C3)c(C)c2C1=O` (stereo not shown) [compound 091, 3-methyl-5-(2-methyl-4-(6-(trifluoromethyl)quinazolin-2-yl)phenyl)-2-((2-methylmorpholino)methyl)-6,7-dihydropyrazolo[1,5-a]pyrazin-4 (5H)-one] registered an IC50 of less than 0.2 µM.

For `Cc1cc(-c2ncc3cc(C(F)(F)F)ccc3n2)ccc1N1CCn2nc(C(C)O)cc2C1=O` (stereo not shown) [compound 092, 2-(1-hydroxyethyl)-5-(2-methyl-4-(6-(trifluoromethyl)quinazolin-2-yl)phenyl)-6,7-dihydropyrazolo[1,5-a]pyrazin-4 (5H)-one], the IC50 was less than 0.2 µM.
